In ChEMBL document CHEMBL1201862, “PubChem BioAssay data set” (2004):
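In this assay, cells in 96-well plates receive the compound at five concentrations for 48 hours. Endpoints are linearly interpolated between the surrounding concentrations. The concentration for 50% growth inhibition is given as GI50.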 Calls of active or inactive are those of the source. Cut-off read from the data, not from the text of the source: active = GI50 up to about 1.1 µM and inactive = higher.

Key:
Assay in all cases: NCI tumour cell line growth inhibition, 48 h
MDA-MB-435 = test system: MDA-MB-435
OVCAR-8 = test system: OVCAR-8
U-251 = test system: U-251
ACHN = test system: ACHN
IGROV-1 = test system: IGROV-1
T47D = test system: T47D
SF-268 = test system: SF-268
MDA-MB-231 = test system: MDA-MB-231
A498 = test system: A498
RPMI-8226 = test system: RPMI-8226
SNB-75 = test system: SNB-75
NCI-H460 = test system: NCI-H460
UO-31 = test system: UO-31
A549 = test system: A549
SK-MEL-5 = test system: SK-MEL-5
SR = test system: SR
NCI/ADR-RES = test system: NCI/ADR-RES
UACC-257 = test system: UACC-257
EKVX = test system: EKVX
SNB-19 = test system: SNB-19
PC-3 = test system: PC-3
SN12C = test system: SN12C
CAKI-1 = test system: CAKI-1
SW-620 = test system: SW-620
Hs-578T = test system: Hs-578T
OVCAR-3 = test system: OVCAR-3
NCI-H226 = test system: NCI-H226
K562 = test system: K562
MDA-N = test system: MDA-N
MOLT-4 = test system: MOLT-4
COLO 205 = test system: COLO 205
CCRF-CEM = test system: CCRF-CEM
SF-295 = test system: SF-295
MCF7 = test system: MCF7
HOP-92 = test system: HOP-92
KM12 = test system: KM12
SK-MEL-28 = test system: SK-MEL-28
M14 = test system: M14
DU-145 = test system: DU-145
786-0 = test system: 786-0
HCT-116 = test system: HCT-116
BT-549 = test system: BT-549
SK-MEL-2 = test system: SK-MEL-2
NCI-H23 = test system: NCI-H23
UACC-62 = test system: UACC-62
TK-10 = test system: TK-10
OVCAR-5 = test system: OVCAR-5
SF-539 = test system: SF-539
SK-OV-3 = test system: SK-OV-3
HL-60 = test system: HL-60
HOP-62 = test system: HOP-62
LOX IMVI = test system: LOX IMVI
HCT-15 = test system: HCT-15
HT-29 = test system: HT-29
NCI-H522 = test system: NCI-H522
RXF 393 = test system: RXF 393
HCC 2998 = test system: HCC 2998
OVCAR-4 = test system: OVCAR-4
Malme-3M = test system: Malme-3M

CC1(C)CC(=O)c2c(nc3ccc4ccccc4c3c2-c2ccc(NC(=O)CCCCC(=O)Nc3ccc(-c4c5c(nc6ccc7ccccc7c46)CC(C)(C)CC5=O)cc3)cc2)C1
GI50 (MDA-MB-435): > 100 µM (inactive) | GI50 (OVCAR-8): > 100 µM (inactive) | GI50 (U-251): > 100 µM (inactive) | GI50 (ACHN): > 100 µM (inactive) | GI50 (IGROV-1): > 100 µM (inactive) | GI50 (T47D): > 100 µM (inactive) | GI50 (SF-268): > 100 µM (inactive) | GI50 (MDA-MB-231): > 100 µM (inactive) | GI50 (A498): > 100 µM (inactive) | GI50 (RPMI-8226): > 100 µM (inactive) | GI50 (SNB-75): > 100 µM (inactive) | GI50 (NCI-H460): > 100 µM (inactive) | GI50 (UO-31): > 100 µM (inactive) | GI50 (A549): > 100 µM (inactive) | GI50 (SK-MEL-5): > 100 µM (inactive) | GI50 (SR): > 100 µM (inactive) | GI50 (NCI/ADR-RES): > 100 µM (inactive) | GI50 (UACC-257): > 100 µM (inactive) | GI50 (EKVX): > 100 µM (inactive) | GI50 (SNB-19): > 100 µM (inactive) | GI50 (PC-3): > 100 µM (inactive) | GI50 (SN12C): > 100 µM (inactive) | GI50 (CAKI-1): > 100 µM (inactive) | GI50 (SW-620): > 100 µM (inactive) | GI50 (Hs-578T): > 100 µM (inactive) | GI50 (OVCAR-3): > 100 µM (inactive) | GI50 (NCI-H226): > 100 µM (inactive) | GI50 (K562): > 100 µM (inactive) | GI50 (MDA-N): > 100 µM (inactive) | GI50 (MOLT-4): > 100 µM (inactive) | GI50 (COLO 205): > 100 µM (inactive) | GI50 (CCRF-CEM): > 100 µM (inactive) | GI50 (SF-295): > 100 µM (inactive) | GI50 (MCF7): > 100 µM (inactive) | GI50 (HOP-92): > 100 µM (inactive) | GI50 (KM12): > 100 µM (inactive) | GI50 (SK-MEL-28): > 100 µM (inactive) | GI50 (M14): > 100 µM (inactive) | GI50 (DU-145): > 100 µM (inactive) | GI50 (786-0): > 100 µM (inactive) | GI50 (HCT-116): > 100 µM (inactive) | GI50 (BT-549): > 100 µM (inactive) | GI50 (SK-MEL-2): > 100 µM (inactive) | GI50 (NCI-H23): > 100 µM (inactive) | GI50 (UACC-62): > 100 µM (inactive) | GI50 (TK-10): > 100 µM (inactive) | GI50 (OVCAR-5): > 100 µM (inactive) | GI50 (SF-539): > 100 µM (inactive) | GI50 (SK-OV-3): > 100 µM (inactive) | GI50 (HL-60): > 100 µM (inactive) | GI50 (HOP-62): > 100 µM (inactive) | GI50 (LOX IMVI): > 100 µM (inactive) | GI50 (HCT-15): > 100 µM | GI50 (HT-29): > 100 µM (inactive)

O=c1cccccc1O [TROPOLONE]
GI50 (MDA-MB-435): > 100 µM (inactive) | GI50 (OVCAR-8): 32.9 µM (inactive) | GI50 (ACHN): > 100 µM (inactive) | GI50 (IGROV-1): > 100 µM (inactive) | GI50 (NCI-H522): 33.3 µM (inactive) | GI50 (T47D): 52.8 µM (inactive) | GI50 (SF-268): 35.7 µM (inactive) | GI50 (MDA-MB-231): > 100 µM (inactive) | GI50 (RPMI-8226): 86.9 µM (inactive) | GI50 (SNB-75): > 100 µM (inactive) | GI50 (NCI-H460): 26.5 µM (inactive) | GI50 (UO-31): 80.2 µM (inactive) | GI50 (A549): > 100 µM (inactive) | GI50 (SK-MEL-5): 83 µM (inactive) | GI50 (SR): 46.7 µM (inactive) | GI50 (NCI/ADR-RES): 39.6 µM (inactive) | GI50 (UACC-257): > 100 µM (inactive) | GI50 (EKVX): > 100 µM (inactive) | GI50 (SNB-19): > 100 µM (inactive) | GI50 (PC-3): 83.4 µM (inactive) | GI50 (CAKI-1): 83.6 µM (inactive) | GI50 (SW-620): 45.5 µM (inactive) | GI50 (Hs-578T): 91.8 µM (inactive) | GI50 (RXF 393): 26.5 µM (inactive) | GI50 (OVCAR-3): 34 µM (inactive) | GI50 (NCI-H226): > 100 µM (inactive) | GI50 (K562): 35.3 µM (inactive) | GI50 (MDA-N): > 100 µM (inactive) | GI50 (MOLT-4): 26.9 µM (inactive) | GI50 (COLO 205): 39.6 µM (inactive) | GI50 (CCRF-CEM): 17.4 µM (inactive) | GI50 (SF-295): 93.3 µM (inactive) | GI50 (MCF7): 44 µM (inactive) | GI50 (HOP-92): > 100 µM (inactive) | GI50 (KM12): > 100 µM (inactive) | GI50 (SK-MEL-28): > 100 µM (inactive) | GI50 (M14): > 100 µM (inactive) | GI50 (DU-145): > 100 µM (inactive) | GI50 (HCC 2998): 79.8 µM (inactive) | GI50 (786-0): 55.3 µM (inactive) | GI50 (HCT-116): 32 µM (inactive) | GI50 (BT-549): 87.1 µM (inactive) | GI50 (SK-MEL-2): > 100 µM (inactive) | GI50 (NCI-H23): > 100 µM (inactive) | GI50 (OVCAR-4): 94 µM (inactive) | GI50 (UACC-62): 96.6 µM (inactive) | GI50 (TK-10): 83.9 µM (inactive) | GI50 (OVCAR-5): > 100 µM (inactive) | GI50 (SK-OV-3): > 100 µM (inactive) | GI50 (HL-60): 11.9 µM (inactive) | GI50 (Malme-3M): > 100 µM (inactive) | GI50 (LOX IMVI): 34.7 µM (inactive) | GI50 (HCT-15): 34 µM | GI50 (HT-29): 41.8 µM (inactive)
